Results: US20220408777A1, “FOOD COMPOSITION FOR PREVENTING AND AM[…] […] NONI AND METHOD FOR PREPARING SAME” (NSTBIO. CO., LTD., priority 2020, published 2022)
Counter-ions that a name gives are not always drawn.

What was measured:
[1] = system: C57BL/KsJ db/db diabetic mice; test: Measurement of fasting blood glucose (in vivo efficacy test for blood glucose lowering); conditions: oral once a day, Noni 100 mg/kg, Metformin 200 mg/kg
Procedure: (§1) An administration sample administered to a diabetic model positive control was a Metformin Tab (metformin hydrochloride, JRP), which is a diabetic drug. A dose was 200 mg/kg body weight of a mouse (denoted as Metformin 200 mg/kg).
(§2) An administration sample administered to a diabetic model fermented noni group was a food composition containing the fermented noni obtained in Example 1. A dose was 100 mg/kg body weight of a mouse (denoted as Noni 100 mg/kg).
(§3) As for the administration method, each administration sample was dissolved in 0.5% carboxymethyl cellulose (CMC) for each dose and orally administered once a day for 6 weeks.
The fasting blood glucose of the experimental animals was measured once a week for 6 weeks using a glucometer. Fasting blood glucose was measured at 1-week (7-day) intervals for 6 weeks (42 days) for each experimental group.

[2] = system: C57BL/KsJ db/db diabetic mice; test: Oral glucose tolerance test (OGTT); format: in vivo; conditions: db/db mice after 6 weeks oral administration, Noni 100 mg/kg, Metformin 200 mg/kg; for blood glucose decreased (OGTT): glucose 3.0 g/kg oral
Procedure: as §1, §2, §3
After the completion of oral administration for 6 weeks, an oral glucose tolerance test (OGTT) was performed.
After experimental animals were fasted for 12 hours, fasting blood glucose was measured by collecting blood from the tail vein, and then a 50% glucose solution (3.0 g/kg of B.W) was orally administered to all groups, and after 30 minutes, 60 minutes, 120 minutes and 180 minutes, blood glucose was measured using a glucometer.

Compound: CN(C)C(=N)N=C(N)N [Metformin, metformin hydrochloride]
- decrease in fasting blood glucose ([1]; after 6 weeks): 34%
- fasting blood glucose ([1]; for 1 to 6 weeks, FIG. 2): consistently low
- AUC value decreased (OGTT area under curve) ([2]; compared to db/db control, FIG. 4): 23.3%
- blood glucose decreased (OGTT) ([2]; at 2 hr, compared to db/db control): 22.9%
- blood glucose decreased (OGTT) ([2]; at 3 hr, compared to db/db control): 28.5%
- blood glucose decreased (OGTT) ([2]; from 1 hr, compared to blood glucose increased at 0.5 hr in db/db control): 33.1%
